Where only a bound is given, the exact number is not on record here.

This assay has as its system mutant Huntington (HTT) protein. Put plainly: HTT Mutant HTRF iPSC assay (mHTT protein lowering). The assay is classed as cell-based. Particulars: human iPSC derived from a HTT patient with a poly-Q49 mutation. In general terms: In TR-FRET formats the signal depends on donor and acceptor labels being close together.
With `Cc1cn2nc(-c3cc(F)c4nc([C@H]5[C@@H]6CN(CCF)C[C@@H]65)cn4c3)cc(C)c2n1` [Compound 216, 6-(8-fluoro-2-((1R,5S,6r)-3-(2-fluoroethyl)-3-azabicyclo[3.1.0]hexan-6-yl)imidazo[1,2-a]pyridin-6-yl)-2,8-dimethylimidazo[1,2-b]pyridazine], the IC50 (in general, the midpoint of a concentration-inhibition curve) was in the range of 100 to 1000 nM.
The figure for `Cc1cn2nc(-c3cc(F)c4nc(C5CCN(C)CC5)cn4c3)cc(C(F)F)c2n1` [Compound 166, 8-(difluoromethyl)-6-(8-fluoro-2-(1-methylpiperidin-4-yl)imidazo[1,2-a]pyridin-6-yl)-2-methylimidazo[1,2-b]pyridazine] is < 100 nM; for `Fc1cccc2sc(-c3cc(F)c4nc(C5CCNCC5)cn4c3)cc12` [Compound 43, 8-fluoro-6-(4-fluorobenzo[b]thiophen-2-yl)-2-(piperidin-4-yl)imidazo[1,2-a]pyridine] it is 1000 to 9000 nM; for `Cc1cn2nc(-c3cc(F)c4nc(NC(=O)C5CCN(C)CC5)nn4c3)cc(C)c2n1` [Compound 317, N-(6-(2,8-dimethylimidazo[1,2-b]pyridazin-6-yl)-8-fluoro-[1,2,4]triazolo[1,5-a]pyridin-2-yl)-1-methylpiperidine-4-carboxamide] it is 100 to 1000 nM.
Take `COc1cc(-c2cc(F)c3nc(N4CCC5(CCN(C)CC5)C4)oc3c2)nn2nc(C)nc12` [Compound 505, 4-fluoro-6-(8-methoxy-2-methyl-[1,2,4]triazolo[1,5-b]pyridazin-6-yl)-2-(8-methyl-2,8-diazaspiro[4.5]decan-2-yl)benzo[d]oxazole]: the IC50 was < 100 nM.
Turning to `Cc1cn2nc(-c3cc(F)c4nc(NC(=O)C5(C)CNC5)cn4c3)cc(C)c2n1` [Compound 258, N-(6-(2,8-dimethylimidazo[1,2-b]pyridazin-6-yl)-8-fluoroimidazo[1,2-a]pyridin-2-yl)-3-methylazetidine-3-carboxamide], the 50% inhibitory concentration (IC50) was < 100 nM.
Consider `Cc1cn2nc(-c3cc(F)c4nc(C56CCC(N)(CC5)CC6)cn4c3)cc(C)c2n1` [Compound 108, 4-(6-(2,8-dimethylimidazo[1,2-b]pyridazin-6-yl)-8-fluoroimidazo[1,2-a]pyridin-2-yl)bicyclo[2.2.2]octan-1-amine], for which the half-maximal inhibitory concentration (IC50) is < 100 nM.
For `Cc1cn2nc(-c3cc(F)c4nc(N(C)C5CCN(C)C(C)C5)oc4c3)cc(C)c2n1` (stereo not drawn) [Compound 473, 6-(2,8-dimethylimidazo[1,2-b]pyridazin-6-yl)-N-(1,2-dimethylpiperidin-4-yl)-4-fluoro-N-methylbenzo[d]oxazol-2-amine] the value was 100 to 1000 nM.
The figure for `Cc1cn2nc(-c3cc(F)c4nc(NC(=O)C5CC6(CCNC6)C5)cn4c3)cc(C)c2n1` (stereo not drawn) [Compound 252, N-(6-(2,8-dimethylimidazo[1,2-b]pyridazin-6-yl)-8-fluoroimidazo[1,2-a]pyridin-2-yl)-6-azaspiro[3.4]octane-2-carboxamide] is 100 to 1000 nM.
For `Cc1nc2c(F)cc(-c3cc(F)c4nc(C5CCNCC5)cn4c3)cc2o1` [Compound 82, 4-fluoro-6-(8-fluoro-2-(piperidin-4-yl)imidazo[1,2-a]pyridin-6-yl)-2-methylbenzo[d]oxazole] the value was < 100 nM.
Regarding `Cc1cc(-c2cc(F)c3nc(NC(=O)C4CN(C(C)C)C4)cn3c2)nc2cn(C)nc12` [Compound 292, N-(6-(2,7-dimethyl-2H-pyrazolo[4,3-b]pyridin-5-yl)-8-fluoroimidazo[1,2-a]pyridin-2-yl)-1-isopropylazetidine-3-carboxamide], the IC50 is < 100 nM.
`COCCN1CCC(c2nc3cc(-c4cc(C)c5nc(C)cn5n4)cc(F)c3[nH]2)CC1` [Compound 417, 6-(7-fluoro-2-(1-(2-methoxyethyl)piperidin-4-yl)-1H-benzo[d]imidazol-5-yl)-2,8-dimethylimidazo[1,2-b]pyridazine] showed an IC50 of 100 to 1000 nM.
For `Cc1cn2nc(-c3cc(F)c4nc([C@H]5CC[C@]6(CCNC6)CC5)nn4c3)cc(C)c2n1` [Compound 451, (5s,8s)-8-(6-(2,8-dimethylimidazo[1,2-b]pyridazin-6-yl)-8-fluoro-[1,2,4]triazolo[1,5-a]pyridin-2-yl)-2-azaspiro[4.5]decane] the value was 100 to 1000 nM.
Compound `CNC12COC(c3cn4cc(-c5cc(F)c6nn(C)cc6c5)cc(F)c4n3)(C1)C2` [Compound 79, 1-[8-fluoro-6-(7-fluoro-2-methyl-indazol-5-yl)imidazo[1,2-a]pyridin-2-yl]-N-methyl-2-oxabicyclo[2.1.1]hexan-4-amine] gave an IC50 of 100 to 1000 nM.
For `Fc1cc(-c2cccc3nonc23)cn2cc(C3CCNCC3)nc12` [Compound 48, 4-(8-fluoro-2-(piperidin-4-yl)imidazo[1,2-a]pyridin-6-yl)benzo[c][1,2,5]oxadiazole] the value was 1000 to 9000 nM.
The compound `Fc1cc(-c2cc3ccc(Cl)cc3o2)cn2cc(C3CCNCC3)nc12` [Compound 39, 6-(6-chlorobenzofuran-2-yl)-8-fluoro-2-(piperidin-4-yl)imidazo[1,2-a]pyridine] yielded an IC50 of 1000 to 9000 nM.
As for `COCCN1C[C@@H]2[C@H](C1)[C@H]2c1cn2cc(-c3cc(C)c4nc(C)cn4n3)cc(F)c2n1` [Compound 187, 6-(8-fluoro-2-((1R,5S,6r)-3-(2-methoxyethyl)-3-azabicyclo[3.1.0]hexan-6-yl)imidazo[1,2-a]pyridin-6-yl)-2,8-dimethylimidazo[1,2-b]pyridazine], the IC50 is < 100 nM.
For the compound `Cc1cn2nc(-c3cn4cc(C5CCNCC5)cc(F)c4n3)cc(C)c2n1` [Compound 131, 6-(8-fluoro-6-(piperidin-4-yl)imidazo[1,2-a]pyridin-2-yl)-2,8-dimethylimidazo[1,2-b]pyridazine], the half-maximal inhibitory concentration (IC50) lay within 100 to 1000 nM.
`Cn1cc2cc(-c3cc(F)c4[nH]c(C5CCNCC5)nc4c3)cc(F)c2n1` [Compound 141, 7-fluoro-5-(7-fluoro-2-(piperidin-4-yl)-1H-benzo[d]imidazol-5-yl)-2-methyl-2H-indazole] displayed an IC50 of 1000 to 9000 nM.
For `Cc1cn2nc(-c3cc(F)c4nc(NC(=O)C5CCCCNC5)nn4c3)cc(C)c2n1` (stereo not drawn) [Compound 321, N-(6-(2,8-dimethylimidazo[1,2-b]pyridazin-6-yl)-8-fluoro-[1,2,4]triazolo[1,5-a]pyridin-2-yl)azepane-3-carboxamide] the value was 100 to 1000 nM; for `Cc1cn2nc(-c3cc(F)c4nc([C@H]5C[C@]6(CCNC6)C5)cn4c3)cc(C)c2n1` [Compound 191, 6-(8-fluoro-2-((2s,4s)-6-azaspiro[3.4]octan-2-yl)imidazo[1,2-a]pyridin-6-yl)-2,8-dimethylimidazo[1,2-b]pyridazine], < 100 nM; for `Cc1cn2cc(-c3cc(F)c4nc(C5CCNCC5)nn4c3)cc(F)c2n1` [Compound 151, 8-fluoro-6-(8-fluoro-2-methylimidazo[1,2-a]pyridin-6-yl)-2-(piperidin-4-yl)-[1,2,4]triazolo[1,5-a]pyridine], 1000 to 9000 nM.
For `Fc1cc(F)c2nc(-c3cc(F)c4nc(C5CCNCC5)cn4c3)oc2c1` [Compound 124, 4,6-difluoro-2-(8-fluoro-2-(piperidin-4-yl)imidazo[1,2-a]pyridin-6-yl)benzo[d]oxazole] the value was 1000 to 9000 nM.
Regarding `Cc1cn2nc(-c3ccc4nc(C5CCN(C)CC5)cn4c3)cc(C)c2n1` [Compound 552], the 50% inhibitory concentration (IC50) was in the range of 100 to 1000 nM.

For the origin of these results see patent US20250353841A1 (BIOGEN MA INC., priority 2022, published 2025).
